Experimental findings from patent US10730826B2, “Ketone inhibitors of lysine gingipain” (CORTEXYME, INC., priority 2016, dated 2020) are described below.

SMILES strings stand for the structures. Several values for one entry are separate records, joined by “and”; a condition that tells them apart may be missing. Equal values may be shown once. Read-outs that look alike come from different tables or passages of the source. Some results are limits rather than exact numbers.

As usually defined, the IC50 is the concentration at which inhibition is half-maximal.

One data set deals with Kgp (Porphyromonas gingivalis (Bacteroides gingivalis), UniProt Q51817). Put plainly: Cy5 activity-based probe detection of Kgp in P. gingivalis lysate. Format: binding. The procedure:
It has a warhead that binds to the Kgp active site, a peptide-based core, and a Cy5 fluorophore for detection. Labeled target proteins can be visualized by biochemical separation of a sample with fractionation by 2-D gel electrophoresis and detection of fluorescent signals from Cy5 at the appropriate excitation and emission wavelength. Incubation of a fixed concentration of the probe following binding of Kgp to a test compound (e.g., a candidate Kgp inhibitor) results in binding of the activity probe to Kgp active sites not already bound by the test compound.
10^8 bacteria were collected and centrifuged at 5000 g for 10 min at 4° C., and the supernatant was discarded. The bacterial cell pellet was lysed with 1 mL of B-Per lysis buffer (Thermo Fischer) on ice for 10 min, then centrifuged for 10 min at 14000 g, 4° C. Supernatant-containing protein lysate was collected. Biological samples were lysed with B-Per lysis buffer for 10 min at 4° C.
Biological samples, P. gingivalis lysate or purified Kgp were incubated with quenchable Cy5 probe compound 71 (1 μM) for 1 h at 37° C. with shaking. Then, samples were denatured with NUPAGE LDS sample buffer (Thermo Fisher) containing 50 mM DTT at 95° C. for 10 min and subjected to SDS-PAGE electrophoresis using a Criterion 4-15% precast gel (Bio-Rad) and Tris/Glycine/SDS running buffer (Bio-Rad). The gel was run at 75V for 10 min and then 125V for 1.5 h. The gel was then removed from the plastic cassette and subjected to Cy5 visualization with a ChemiDoc imaging system (Bio-Rad).
Samples were labeled with quenchable Cy5 probe compound 71 (1 μM) for 1 h at 37° C. with shaking. For immunoprecipitation of Cy5 labeled Kgp, the samples were then incubated with 10 μg of rabbit polyclonal CAB102 antibody with rotation overnight at 4° C. Then, samples were incubated with prewashed Dynabead Protein G beads with rotation for 20 min at room temperature. The samples were washed 4 times with 200 μL of washing buffer, using a magnetic rack. […]

The target in a further data set is Cathepsin S (Homo sapiens (Human), UniProt P25774). Put plainly: Cathepsin S inhibition assay. The format is biochemical. Particulars: for IC50: read-out: IC50 (nM) CatS. The procedure: (§1) The capacities of compounds of the present invention to inhibit the activity of cathepsins B, H, K, L, and S were measured in similar assays. Boc-Leu-Arg-Arg-AMC (20 μM) in sodium acetate buffer (50 mM, pH 5.5) containing DTT (1 mM) and EDTA (2 mM) was used for the Cathepsin B assay. L-Arg-AMC (20 μM) in sodium acetate buffer (50 mM, pH 5.5) containing DTT (1 mM) and EDTA (2 mM) was used for the Cathepsin H assay. Z-Phe-Arg-AMC (10 μM) in HEPES buffer (50 mM, pH 7.4) containing DTT (2.5 mM) and EDTA (1 mM) was used for the Cathepsin K assay. Z-Phe-Arg-AMC (20 μM) in sodium acetate buffer (50 mM, pH 5.5) containing DTT (1 mM) and EDTA (2 mM) was used for the Cathepsin L assay. Z-Leu-Arg-AMC (10 μM) in sodium acetate buffer (25 mM, pH 4.5) containing DTT (2.5 mM) and NaCl (50 mM) was used for the Cathepsin S assay. The capacities of the compounds to inhibit the activity of cathepsins F, V, and Z were also measured.
(§2) Further assays to measure the inhibitory activity of compounds of the present invention against Kgp and cathepsins B, H, K, L, and S were conducted as described in Example 66. The capacities of the compounds to inhibit the activity of cathepsins F, V, and Z were also measured.

A further data set concerns the target Cathepsin B (Homo sapiens (Human), UniProt P07858). Briefly: Cathepsin B inhibition assay. Format: biochemical. The settings on record: for IC50: read-out: IC50 (nM) CatB. The procedure:
as §1, §2

The subject of data set [1] is lysine gingipain (Kgp). Briefly: biochemical. Particulars: as compared to reference compound 73. The format is biochemical, Porphyromonas gingivalis. The procedure:
(§3) The specific assay conditions were as follows. Buffer: pH=7.5, 100 mM Tris-HCl, 75 mM NaCl, 2.5 mM CaCl2), 10 mM cysteine, 1% DMSO after all additions. Protein: 0.1 nM Kgp, isolated from culture of Porphyromonas gingivalis, as described by Pike et al. (J. Biol. Chem. 1994, 269(1), 406), and Potempa and Nguyen (Current Protocols in Protein Science. 2007, 21.20.1-21.20.27). Fluorogenic substrate: 10 μM Z-His-Glu-Lys-MCA. Time=90 minutes. Temperature=37° C.
as §2

The next data set has as its target Cathepsin H (Homo sapiens (Human), UniProt P09668). Briefly: Cathepsin H inhibition assay. Format: biochemical. The settings on record: for IC50: read-out: IC50 (nM) CatH. The method, then:
as §1, §2

The target of another data set is Cathepsin L (Homo sapiens (Human), UniProt P07711). Briefly: Cathepsin L inhibition assay. The format is biochemical. Particulars: for IC50: read-out: IC50 (nM) CatL. The procedure: as §1, §2
The next data set has as its target Cathepsin K (Homo sapiens (Human), UniProt P43235). Put plainly: Cathepsin K inhibition assay. The format is biochemical. The settings on record: for IC50: read-out: IC50 (nM) CatK. The method, then: as §1, §2
For data set [2], the target named is lysine gingipain (Kgp) (Porphyromonas gingivalis (Bacteroides gingivalis), UniProt P72194). Put plainly: biochemical. Format: biochemical. The settings on record: IC50 (nM) Kgp. The procedure:
as §3, §2

A further data set deals with cathepsin V (Homo sapiens (Human), UniProt O60911). Put plainly: Cathepsin V inhibition assay. Particulars: Table 4; read-out: IC50 (nM) CatV. Format: biochemical. The procedure:
as §1, §2

The next data set addresses cathepsin F (Homo sapiens (Human), UniProt Q9UBX1). Put plainly: Cathepsin F inhibition assay. Format: biochemical. Particulars: Table 4; read-out: IC50 (nM) CatF. The procedure:
as §1, §2

For the next data set, the target named is cathepsin Z (Homo sapiens (Human), UniProt Q9UBR2). Briefly: Cathepsin Z inhibition assay. Format: biochemical. The settings on record: Table 4; read-out: IC50 (nM) CatZ. The procedure:
as §1, §2

The nature of data set [3]: Pharmacokinetics in male CD-1 mice dosed p.o. Format: in vivo. Particulars: p.o. 10 mg/kg, compared to reference compound 73.

Regarding `C[N+]1=C(/C=C/C=C/C=C2\N(CCCCCC(=O)NCc3cn(-c4cccc(C(=O)N[C@@H](CCCCN)C(=O)COc5c(F)cc(CNC(=O)C6CCN(S(=O)(=O)c7ccccc7-c7c8cc/c(=[N+]9\CCc%10cc(S(=O)(=O)O)ccc%109)cc-8oc8cc(N9CCc%10cc(S(=O)(=O)O)ccc%109)ccc78)CC6)cc5F)c4)nn3)c3ccc(S(=O)(=O)O)cc3C2(C)C)C(C)(C)c2cc(S(=O)(=O)O)ccc21` [Compound 71], the specificity of detection entry on Kgp (W83 vs Kgp knockout strain) was “specific for Kgp”. In addition, the “apparent limit of detection of Kgp” value on Kgp (probe 1 μM) is listed as 500 CFU.

On to `NCCCC[C@H](NC(=O)C1CCCC1)C(=O)COc1c(F)cccc1F` [Compound 2, (S)—N-(7-amino-1-(2,6-difluorophenoxy)-2-oxoheptan-3-yl)cyclopentanecarboxamide], for which, on Cathepsin S (ratio to IC50 of compound 73), the “CatS IC50 relative to reference compound 73” value is given as “more than ten times higher”. Moreover, on Cathepsin B (ratio to IC50 of compound 73), the “CatB IC50 relative to reference compound 73” value is recorded as “more than 20 times”. Further, in the data set on lysine gingipain (Kgp) [1], the “selectivity for Kgp over endogenous cathepsins” value (shortened to “selectivity for Kgp”) is listed as “increased selectivity”. For the same compound, the “CatH IC50 relative to reference compound 73” value at Cathepsin H (ratio to IC50 of compound 73) is “more than ten times higher”. Besides, the “CatL IC50 relative to reference compound 73” value at Cathepsin L (ratio to IC50 of compound 73) is recorded as “more than 100 times”. Besides, the “CatK IC50 relative to reference compound 73” value at Cathepsin K (ratio to IC50 of compound 73) is “more than 100 times”.

For the compound `NCCCCC(NC(=O)c1ccccn1)C(=O)COc1c(F)ccc(F)c1F` (stereo not shown) [Compound 50a], the IC50 is more than 10000 nM at Cathepsin S (Table 4); more than 10000 nM on Cathepsin B (Table 4); 0.09 nM against lysine gingipain (Kgp) [2] (Table 4); more than 10000 nM on cathepsin V; more than 10000 nM at Cathepsin H (Table 4); more than 10000 nM on Cathepsin L (Table 4). Moreover, the IC50 was more than 10000 nM on cathepsin F and 1000 nM on Cathepsin K (Table 4).

Regarding `COC(C)(C)C(=O)NC(CCCCN)C(=O)COC(C(F)(F)F)C(F)(F)F` (stereo not shown) [Compound 69a], the IC50 on Cathepsin S (Table 4) was more than 10000 nM; at cathepsin Z it was more than 10000 nM; on Cathepsin B (Table 4), more than 10000 nM; at lysine gingipain (Kgp) [2] (Table 4), 0.21 nM; at Cathepsin H (Table 4), more than 10000 nM; at Cathepsin L (Table 4), more than 10000 nM. The IC50 on cathepsin F and on Cathepsin K (Table 4) was more than 10000 nM each time.

Consider `COC(C)(C)C(=O)NC(CCCCN)C(=O)COc1c(F)ccc(F)c1F` (stereo not shown) [Compound 47a], for which the IC50 is more than 10000 nM at Cathepsin S (Table 4); more than 10000 nM on Cathepsin B (Table 4); 0.06 nM on lysine gingipain (Kgp) [2] (Table 4); more than 10000 nM on cathepsin V; more than 10000 nM on Cathepsin H (Table 4); more than 10000 nM at Cathepsin L (Table 4). In addition, the IC50 was more than 10000 nM on cathepsin F and 9000 nM at Cathepsin K (Table 4).

Regarding `NCCCCC(NC(=O)C1CCCC1)C(=O)COC(C(F)(F)F)C(F)(F)F` (stereo not shown) [Compound 18a], the IC50 was more than 10000 nM on Cathepsin S (Table 4); more than 10000 nM at Cathepsin B (Table 4); 0.5 nM against lysine gingipain (Kgp) [2] (Table 3); 0.5 nM against lysine gingipain (Kgp) [2] (Table 4); more than 10000 nM at cathepsin V; more than 10000 nM at Cathepsin H (Table 4). The IC50 at Cathepsin L (Table 4), on cathepsin F and at Cathepsin K (Table 4) was more than 10000 nM throughout.

With `COC(C)(C)C(=O)N[C@@H](CCCCN)C(=O)COc1c(F)ccc(F)c1F` [Compound 47, (S)—N-(7-amino-2-oxo-1-(2,3,6-trifluorophenoxy)heptan-3-yl)-2-methoxy-2-methylpropanamide], in data set [3], the “concentrations in the brain and cerebrospinal fluid (CSF)” value was “increased concentrations in the brain and cerebrospinal fluid (CSF)”; the oral availability result is recorded as “improved oral availability”; the plasma concentrations result is “increased plasma concentrations”. For the same compound, the “selectivity for Kgp” value in the data set with lysine gingipain (Kgp) [1] is “far more selective”.

Take `NCCCCC(NC(=O)c1ccc(F)nc1)C(=O)COc1ccon1` (stereo not shown) [Compound 55a]: the IC50 at Cathepsin S (Table 4) is more than 10000 nM; at Cathepsin B (Table 4) it was more than 10000 nM; against lysine gingipain (Kgp) [2] (Table 4), 0.12 nM; at cathepsin V, more than 10000 nM; on Cathepsin H (Table 4), more than 10000 nM; at Cathepsin L (Table 4), 6380 nM. Moreover, the IC50 on Cathepsin K (Table 4) turned out to be 1000 nM.

In the case of `NCCCCC(NC(=O)C1CCCC1)C(=O)COc1c(F)cccc1F` (stereo not shown) [Compound 2a], the IC50 on Cathepsin S (Table 3) was more than 100000 nM; on Cathepsin S (Table 4), more than 10000 nM; on Cathepsin B (Table 3) it was more than 10000 nM; at Cathepsin B (Table 4), more than 10000 nM; on lysine gingipain (Kgp) [2] (Table 3) it was ≤ 0.05 nM and 0.11 nM; against lysine gingipain (Kgp) [2] (Table 4), less than 0.05 nM. Besides, the IC50 on cathepsin V is more than 10000 nM; on Cathepsin H (Table 3), 1550 nM; at Cathepsin H (Table 4), 1550 nM; on Cathepsin L (Table 3), more than 100000 nM; on Cathepsin L (Table 4), more than 10000 nM; on Cathepsin K (Table 3), 2290 nM. The IC50 on Cathepsin K (Table 4) was 2290 nM.

For `COC(C)(C)C(=O)N[C@@H](CCCCN)C(=O)COC(C(F)(F)F)C(F)(F)F` [Compound 69, (S)—N-(7-amino-1-((1,1,1,3,3,3-hexafluoropropan-2-yl)oxy)-2-oxoheptan-3-yl)-2-methoxy-2-methylpropanamide], in data set [3], the “concentrations in the brain and cerebrospinal fluid (CSF)” value was “increased concentrations in the brain and cerebrospinal fluid (CSF)”; the oral availability result is reported as “improved oral availability”; the plasma concentrations result is “increased plasma concentrations”. The “selectivity for Kgp” value in the data set with lysine gingipain (Kgp) [1] is listed as “far more selective”.

For the compound `NCCCC[C@H](NC(=O)c1ccccn1)C(=O)COc1c(F)ccc(F)c1F` [Compound 50, (S)—N-(7-amino-2-oxo-1-(2,3,6-trifluorophenoxy)heptan-3-yl)picolinamide], in the data set with lysine gingipain (Kgp) [1], the “selectivity for Kgp” value was “increased selectivity”.
